Key:
[1] = test system: erytroid leukemia cell line K-562; experiment: In vitro cytotoxic activity (metabolisation of Calcein AM); format: cell-based, human; conditions: Homo sapiens, K562, 72 hours, highest concentration tested 100 μM in routine testing
Method in brief: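 Cells were pre-incubated 24 hours at 2.500-30.000 cells per well, then exposed to six 3-fold dilutions, usually from 100 μM top, for 72 hours at 37° C, 5% CO2, in triplicate. Calcein AM was added at 1 μg/ml final and fluorescence read after 1 hour; GI50 is the concentration halving Calcein AM conversion.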

[2] = test system: human skin fibroblast line ASF-2; experiment: Senescence-specific beta-galactosidase staining; format: cell-based
Excerpt: (§1) B) Cellular parameters: • (4) Cellular morphology: to evaluate cytoplasmic and nuclear stability; • (5) Cytoskeleton organization: to evaluate the stability of the cytoskeleton; • (6) Appearance of senescence-specific β-galactosidase: to rule out pro-aging effects; • (7) Lysosomal staining (Neutral red); • (8) JC-1 Staining of Mitochondria: for evaluation of mitochondrial function; • (9) Rejuvenation studies: for evaluation of reversion effect from aged phenotype to young phenotype; and
(§2) All cell culture experiments were performed on early and mid passage cultures (about 20 to 40% lifespan completed) of normal human skin fibroblast line, designated ASF-2. In order to check the effects of test compounds on senescent cells, late passage cells with more than 90% lifespan completed were used. ASF-2 cell line was established from a mammary skin biopsy obtained from a young, non-smoking and healthy […] at the time of breast reduction operation. Normal culture conditions of medium (DMEM) containing antibiotics, 10% foetal calf serum, and incubation at 37° C. with 95% humidity were used. The effects of the test compounds were determined using the following procedures.

SKH-1 hairless mice = experiment: Hairless mouse assay: skin elasticity; format: in vivo; conditions: 3 weeks of topical treatment
Excerpt: Evaluation of cutaneous effects of new topical compounds in the hirless mouse assay. The purpose of this study was to evaluate new topical compounds for their safety and efficacy as topical skin anti-aging treatments. The hairless mouse model is a well established model for studying the treatments of photoaging. This model has been used to study mechanisms, define effective treatment regimens and assess safety for retinoids and other anti-aging products. The present study was used to investigate a new class of anti-aging compounds in comparison to classical ones. Recent clinical studies have shown that this class of compounds improve the appearance of photodamaged skin and decrease transepidermal water loss (TEWL) without causing skin irritation. […] At baseline (prior to the 1st treatment), and weekly, the dorsal skin was measured for: transepidermal water loss (TEWL); skin moisture content; and skin elasticity. […]
Skin Moisture Content & Elasticity. […] This instrument is equipped with dual probes which are placed on the skin surface and a quantitative measurement taken of the respective parameters and the measurements recorded on an integrated computer. Mean measurements was determined for each treatment group over time, and comparative statistics used to evaluate product effectiveness. […]

[3] = test system: human skin fibroblast line ASF-2; experiment: Actin staining (cytoskeletal organization); format: cell-based; conditions: young cells, after 3 days, treated vs untreated
Protocol: as §2
Actin staining. The pattern of cytoskeletal actin staining was studied by staining the cells with florescent ligand FITC-labelled Phalloidin, using a florescence microscope.

proteasome = experiment: Proteasomal activity (chymotrypsin-like) in cell extracts; format: cell-based, human; conditions: 40 μM-200 μM
Protocol: as §2
Proteasomal activity. Chymotrypsin-like activity in cell extracts prepared from treated and untreated cells was determined by in vitro degradation of oligopeptides by the proteasome.

[4] = test system: senescent human skin fibroblasts; experiment: Effects on senescent human skin fibroblasts (morphology, cell number); format: cell-based
Excerpt: as §1, §2

`Nc1nc2c(NCc3ccco3)ncnc2[nH]1` [Compound 82, 6-furfurylamino-8-aminopurine] was tested, and the GI50 [1] was 68.2 µM, the “number of prematurely senescent cells (beta-galactosidase staining)” value [2] was “did not show any increase” and the skin elasticity (SKH-1 hairless mice) was “better than controls tested”. The actin staining pattern [3] was “no obvious differences”, the “improvement in the proteasomal activity” value (proteasome) was 5-10% and the “inhibition of chymotrypsin-like proteasomal activity” value (proteasome; compared to untreated) was “no inhibition”. For the same compound, the “number of surviving senescent cells” value ([4]; 7 to 14 days) was “maintains the number of surviving senescent cells”, the “appearance of senescent cells (intracellular debris)” value ([4]; 40 and 80 μM, vs controls) was “less intracellular debris” and the “morphology of senescent cells” value ([4]; after 14 days of treatment) was “looking relatively younger”.

From US20130072506A1, “6,8-DISUBSTITUTED PURINE COMPOSITIONS” (priority 2011, published 2013)
